Results: ChEMBL document CHEMBL5137022, “Antitumor Activity of Rutaecarpine in Human Colorectal Cancer Cells by Suppression of Wnt/β-Catenin Signaling” (J Nat Prod, 2022)
Active and inactive are the calls of the source. No cut-off for these calls is given here.

Experiments:
[1] = system: LS174T; assay: Antitumor activity against human LS174T cells xenografted in BALB/c nude mouse assessed as reduction in tumor volume at 10 mg/kg, ip administered 3 times per week for 21 days by electronic caliper method; assay type: functional; set-up: scale not given: the % may be the effect or the level left; settings: time 21 day
[2] = system: CCD-18Co; assay: Antiproliferative activity against human CCD-18Co cells assessed as reduction in cell viability measured after 72 hrs by SRB assay; assay type: functional, cell-based
[3] = system: LS174T; assay: Induction of apoptosis in human LS174T cells assessed as increase in late apoptotic cells at 20 to 40 uM measured after 48 hrs by AnnexinV-FITC/PI staining based flowcytometry analysis; assay type: functional, cell-based; settings: dose 20-40 µM
[4] = system: LS174T; assay: Induction of cell cycle arrest in human LS174T cells assessed as accumulation of cells at S phase at 20 uM measured at 12 hrs by RNase A/propidium iodide staining based flow cytometric analysis (reference value: 11.4 %); assay type: functional
[5] = system: LS174T; assay: Induction of cell cycle arrest in human LS174T cells assessed as accumulation of cells at G0/G1 phase at 5 uM measured after 24 hrs by RNase A/propidium iodide staining based flow cytometric analysis (reference value: 71.7 %); assay type: functional
[6] = Toxicity in BALB/c nude mouse xenografted with human LS174T cells assessed as effect on body weight at 10 to 30 mg/kg, ip administered 3 times per week for 21 days; assay type: organism-based; settings: in vivo, 504 h, dose 10-30 mg/kg, time 21 day
[7] = Inhibition of Wnt/beta-catenin transactivation signalling in HEK293 cells transfected with renilla luciferase and TOPFlash reporter gene incubated for 24 hrs by dual-luciferase assay; assay type: cell-based; settings: Homo sapiens, HEK293, 24 h
[8] = system: LS174T; assay: Induction of cell cycle arrest in human LS174T cells assessed as accumulation of cells at G0/G1 phase at 20 uM measured at 12 hrs by RNase A/propidium iodide staining based flow cytometric analysis (reference value: 74.8 %); assay type: functional
[9] = system: LS174T; assay: Induction of cell cycle arrest in human LS174T cells assessed as accumulation of cells at G2/M phase at 5 uM measured after 24 hrs by RNase A/propidium iodide staining based flow cytometric analysis (reference value: 12.2 %); assay type: functional
[10] = system: LS174T; assay: Induction of cell cycle arrest in human LS174T cells assessed as accumulation of cells at sub-G1 phase at 5 uM measured after 24 hrs by RNase A/propidium iodide staining based flow cytometric analysis (reference value: 1.3 %); assay type: functional
[11] = system: Mus musculus; assay: Downregulation of cyclin D1 expression in tumor of BALB/c mouse xenografted with human LS174T cells at 10 to 30 mg/kg, ip administered 3 times per week for 21 days by immunohistochemical based analysis; assay type: functional, organism-based; settings: dose 10-30 mg/kg, time 21.0 day
[12] = system: LS174T; assay: Inhibition of cell invasion in human LS174T cells incubated for 24 hrs by transwell assay; assay type: functional, cell-based; settings: dose 2-8 µM, DDE = dose-dependent effect
[13] = system: RKO; assay: Antiproliferative activity against human RKO cells harboring wild type beta-catenin assessed as reduction in cell viability measured after 72 hrs by SRB assay; assay type: functional, cell-based
[14] = system: Mus musculus; assay: Downregulation of survivin expression in tumor of BALB/c mouse xenografted with human LS174T cells at 10 to 30 mg/kg, ip administered 3 times per week for 21 days by Western blot analysis; assay type: functional, organism-based; settings: dose 10-30 mg/kg, time 21.0 day
[15] = system: LS174T; assay: Induction of apoptosis in human LS174T cells assessed as increase in early apoptotic cells at 20 to 40 uM measured after 48 hrs by AnnexinV-FITC/PI staining based flowcytometry analysis; assay type: functional, cell-based; settings: dose 20-40 µM
[16] = system: LS174T; assay: Induction of cell cycle arrest in human LS174T cells assessed as accumulation of cells at S phase at 10 uM measured after 24 hrs by RNase A/propidium iodide staining based flow cytometric analysis (reference value: 14.5 %); assay type: functional
[17] = system: LS174T; assay: Induction of cell cycle arrest in human LS174T cells assessed as accumulation of cells at sub-G1 phase at 20 uM measured at 24 hrs by RNase A/propidium iodide staining based flow cytometric analysis (reference value: 0.7 %); assay type: functional
[18] = system: LS174T; assay: Induction of cell cycle arrest in human LS174T cells assessed as accumulation of cells […] at 20 uM measured after 24 hrs by RNase A/propidium iodide staining based flow cytometric analysis (reference value: 1.3 %); assay type: functional
[19] = system: LS174T; assay: Induction of cell cycle arrest in human LS174T cells assessed as downregulation of CDK4 expression measured after 24 hrs by Western blot analysis; assay type: functional, cell-based; settings: dose 5-20 µM, DDE = dose-dependent effect
[20] = system: LS174T; assay: Antitumor activity against human LS174T cells xenografted in BALB/c nude mouse assessed as reduction in tumor volume at 30 mg/kg, ip administered 3 times per week for 21 days by electronic caliper method; assay type: functional; set-up: scale not given: the % may be the effect or the level left; settings: time 21 day
[21] = system: LS174T; assay: Induction of apoptosis in human LS174T cells assessed as upregulation of cleaved PARP expression measured after 48 hrs by Western blot analysis; assay type: functional, cell-based; settings: dose 20-40 µM, DDE = dose-dependent effect
[22] = system: LS174T; assay: Induction of cell cycle arrest in human LS174T cells assessed as accumulation of cells at G0/G1 phase at 20 uM measured at 36 hrs by RNase A/propidium iodide staining based flow cytometric analysis (reference value: 74.8 %); assay type: functional
[23] = system: Mus musculus; assay: Downregulation of cyclin-D1 expression in tumor of BALB/c mouse xenografted with human LS174T cells at 10 to 30 mg/kg, ip administered 3 times per week for 21 days by Western blot analysis; assay type: functional, organism-based; settings: dose 10-30 mg/kg, time 21.0 day
[24] = system: HCT-15; assay: Antiproliferative activity against human HCT-15 cells harboring wild type beta-catenin assessed as reduction in cell viability measured after 72 hrs by SRB assay; assay type: functional, cell-based; settings: HCT-15, 72 h
[25] = system: LS174T; assay: Downregulation of cyclin D1 expression in human LS174T cells at 2.5 to 20 uM incubated for 24 hrs by Western blot analysis; assay type: functional, cell-based; settings: dose 2.5-20 µM
[26] = system: CCD-841CoN; assay: Antiproliferative activity against human CCD-841CoN cells assessed as reduction in cell viability measured after 72 hrs by SRB assay; assay type: functional, cell-based
[27] = system: LS174T; assay: Induction of cell cycle arrest in human LS174T cells assessed as accumulation of cells at sub-G1 phase at 10 uM measured after 24 hrs by RNase A/propidium iodide staining based flow cytometric analysis (reference value: 1.3 %); assay type: functional
[28] = system: LS174T; assay: Antiproliferative activity against human LS174T cells harboring beta-catenin mutant assessed as reduction in cell viability measured after 72 hrs by SRB assay; assay type: functional, cell-based
[29] = system: LS174T; assay: Induction of cell cycle arrest in human LS174T cells assessed as accumulation of cells at G0/G1 phase at 20 uM measured at 48 hrs by RNase A/propidium iodide staining based flow cytometric analysis (reference value: 74.8 %); assay type: functional
[30] = system: LS174T; assay: Induction of cell cycle arrest in human LS174T cells assessed as accumulation of cells at S phase at 5 uM measured after 24 hrs by RNase A/propidium iodide staining based flow cytometric analysis (reference value: 14.5 %); assay type: functional
[31] = system: LS174T; assay: Induction of cell cycle arrest in human LS174T cells assessed as accumulation of cells at sub-G1 phase at 20 uM measured at 36 hrs by RNase A/propidium iodide staining based flow cytometric analysis (reference value: 0.7 %); assay type: functional
[32] = system: LS174T; assay: Induction of cell cycle arrest in human LS174T cells assessed as accumulation of cells at S phase at 20 uM measured at 48 hrs by RNase A/propidium iodide staining based flow cytometric analysis (reference value: 11.4 %); assay type: functional

SMILES: O=c1c2ccccc2nc2n1CCc1c-2[nH]c2ccccc12 [RUTAECARPINE]
- Activity [1]: 25.9%
- IC50 [2]: > 50 µM
- Activity [3]: Active
- Activity [4]: 2.4%
- Activity [5]: 75.8%
- Activity [6]: Non-Toxic
- IC50 [7]: 4.3 µM
- Activity [8]: 80.3%
- Activity [9]: 11.8%
- Activity [10]: 1.4%
- Activity [11]: Active
- inhibition [12]: Dde
- IC50 [13]: > 50 µM
- Activity [14]: Active
- Activity [15]: Active
- Activity [16]: 7.2%
- Activity [17]: 2.7%
- Activity [18]: 1.5%
- Activity [19]: Dde
- Activity [20]: 54.6%
- Activity [21]: Dde
- Activity [22]: 87.4%
- Activity [23]: Active
- IC50 [24]: > 50 µM
- Activity [25]: Active
- IC50 [26]: > 50 µM
- Activity [27]: 1.3%
- IC50 [28]: 6.1 µM
- Activity [29]: 76.9%
- Activity [30]: 10.7%
- Activity [31]: 6.1%
- Activity [32]: 4.7%
